Laboratory results from article PMC4076210, “Discovery of Novel AKT Inhibitors with Enhanced Anti-Tumor Effects in Combination with the MEK Inhibitor” (PLoS ONE, 2014).
Read-outs that look alike come from different tables or passages of the source.

Experiments:
Format in all cases: biochemical
[1] = molecular target: T1, Abl (M351T)(h) (Homo sapiens, UniProt P00519, M351T); experiment: Kinase panel
T1 construct: purchased Millipore KinaseProfiler

[2] = molecular target: T2, Abl(h) (Homo sapiens, UniProt P00519); experiment: Kinase panel
T2 construct: purchased Millipore KinaseProfiler

[3] = molecular target: T3, Abl(T315I)(h) (Homo sapiens, UniProt P00519, T315I); experiment: Kinase panel
T3 construct: purchased Millipore KinaseProfiler

[4] = molecular target: T4, EphA4(h) (Homo sapiens, UniProt P54764); experiment: Kinase panel
T4 construct: purchased Millipore KinaseProfiler

[5] = molecular target: T5, FGFR1(h) (Homo sapiens, UniProt P11362); experiment: Kinase panel
T5 construct: purchased Millipore KinaseProfiler
T5 sequence (P11362 22-822): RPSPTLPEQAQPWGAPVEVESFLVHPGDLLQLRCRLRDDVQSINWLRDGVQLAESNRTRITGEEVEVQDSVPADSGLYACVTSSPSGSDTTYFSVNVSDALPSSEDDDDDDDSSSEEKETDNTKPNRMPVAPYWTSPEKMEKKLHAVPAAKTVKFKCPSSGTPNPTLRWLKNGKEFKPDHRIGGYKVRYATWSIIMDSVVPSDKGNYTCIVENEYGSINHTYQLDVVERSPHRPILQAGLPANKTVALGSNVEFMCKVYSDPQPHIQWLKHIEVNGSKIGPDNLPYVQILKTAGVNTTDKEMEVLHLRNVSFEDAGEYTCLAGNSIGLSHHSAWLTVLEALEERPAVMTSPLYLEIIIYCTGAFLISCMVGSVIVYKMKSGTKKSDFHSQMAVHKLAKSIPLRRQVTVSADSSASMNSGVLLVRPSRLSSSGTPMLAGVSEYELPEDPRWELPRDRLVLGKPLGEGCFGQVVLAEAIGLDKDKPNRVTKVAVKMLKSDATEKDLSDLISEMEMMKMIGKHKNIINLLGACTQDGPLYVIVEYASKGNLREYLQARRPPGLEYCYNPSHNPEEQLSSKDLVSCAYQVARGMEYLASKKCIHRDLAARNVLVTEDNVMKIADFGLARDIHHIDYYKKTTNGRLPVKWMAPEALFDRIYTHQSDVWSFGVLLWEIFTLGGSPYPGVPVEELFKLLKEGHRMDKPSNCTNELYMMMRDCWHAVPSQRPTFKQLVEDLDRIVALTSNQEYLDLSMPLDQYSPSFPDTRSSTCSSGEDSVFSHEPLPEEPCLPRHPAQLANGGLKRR

[6] = molecular target: T6, Flt1(h) (Homo sapiens, UniProt P17948); experiment: Kinase panel
T6 construct: purchased Millipore KinaseProfiler

[7] = molecular target: T7, LKB1(h) (Homo sapiens, UniProt Q15831); experiment: Kinase panel
T7 construct: purchased Millipore KinaseProfiler
T7 sequence (Q15831 1-433): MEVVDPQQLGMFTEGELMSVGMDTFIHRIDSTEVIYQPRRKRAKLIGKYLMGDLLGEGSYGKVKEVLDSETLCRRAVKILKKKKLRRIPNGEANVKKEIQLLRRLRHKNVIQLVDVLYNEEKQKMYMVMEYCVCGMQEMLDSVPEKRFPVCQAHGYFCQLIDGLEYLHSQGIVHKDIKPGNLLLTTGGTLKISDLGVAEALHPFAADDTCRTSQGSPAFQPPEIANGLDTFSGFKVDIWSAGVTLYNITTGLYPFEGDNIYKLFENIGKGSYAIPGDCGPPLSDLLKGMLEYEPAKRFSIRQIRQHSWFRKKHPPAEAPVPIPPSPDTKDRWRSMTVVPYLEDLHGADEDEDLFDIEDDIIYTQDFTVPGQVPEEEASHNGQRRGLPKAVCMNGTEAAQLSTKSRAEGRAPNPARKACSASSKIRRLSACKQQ
T7 sequence (Q7RTN6 1-431 partner): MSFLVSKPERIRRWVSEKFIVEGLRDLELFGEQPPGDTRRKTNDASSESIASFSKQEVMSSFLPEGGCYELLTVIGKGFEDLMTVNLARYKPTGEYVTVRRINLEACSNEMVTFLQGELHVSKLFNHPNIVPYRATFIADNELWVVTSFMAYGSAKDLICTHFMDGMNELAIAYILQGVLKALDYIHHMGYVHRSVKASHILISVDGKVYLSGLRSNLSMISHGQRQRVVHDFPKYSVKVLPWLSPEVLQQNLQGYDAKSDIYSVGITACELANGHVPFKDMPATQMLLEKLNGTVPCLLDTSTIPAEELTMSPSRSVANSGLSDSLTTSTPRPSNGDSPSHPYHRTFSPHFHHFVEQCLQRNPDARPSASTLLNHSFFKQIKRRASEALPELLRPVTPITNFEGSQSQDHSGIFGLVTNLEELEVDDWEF
T7 sequence (Q9Y376 1-341 partner): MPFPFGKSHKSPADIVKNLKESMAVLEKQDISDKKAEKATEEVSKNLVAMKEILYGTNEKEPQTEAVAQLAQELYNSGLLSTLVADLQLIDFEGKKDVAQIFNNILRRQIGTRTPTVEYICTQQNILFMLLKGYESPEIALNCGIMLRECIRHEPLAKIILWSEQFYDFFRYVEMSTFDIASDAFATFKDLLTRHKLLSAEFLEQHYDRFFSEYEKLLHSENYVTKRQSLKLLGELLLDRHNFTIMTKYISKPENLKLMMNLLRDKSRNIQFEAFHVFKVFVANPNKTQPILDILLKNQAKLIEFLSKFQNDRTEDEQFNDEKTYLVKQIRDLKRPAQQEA

[8] = molecular target: T8, NEK7(h) (Homo sapiens, UniProt Q8TDX7); experiment: Kinase panel
T8 construct: purchased Millipore KinaseProfiler
T8 sequence (Q8TDX7 whole entry): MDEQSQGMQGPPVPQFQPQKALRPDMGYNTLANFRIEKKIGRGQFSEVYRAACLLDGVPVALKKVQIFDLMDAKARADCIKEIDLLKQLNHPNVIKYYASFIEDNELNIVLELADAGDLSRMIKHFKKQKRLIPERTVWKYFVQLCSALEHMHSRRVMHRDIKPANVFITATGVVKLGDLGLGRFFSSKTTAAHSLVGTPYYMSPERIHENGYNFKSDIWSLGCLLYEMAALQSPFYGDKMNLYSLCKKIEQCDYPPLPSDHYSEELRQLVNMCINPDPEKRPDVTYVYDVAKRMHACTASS

[9] = molecular target: T9, PAK3(h) (Homo sapiens, UniProt O75914); experiment: Kinase panel
T9 construct: purchased Millipore KinaseProfiler
T9 sequence (O75914 whole entry): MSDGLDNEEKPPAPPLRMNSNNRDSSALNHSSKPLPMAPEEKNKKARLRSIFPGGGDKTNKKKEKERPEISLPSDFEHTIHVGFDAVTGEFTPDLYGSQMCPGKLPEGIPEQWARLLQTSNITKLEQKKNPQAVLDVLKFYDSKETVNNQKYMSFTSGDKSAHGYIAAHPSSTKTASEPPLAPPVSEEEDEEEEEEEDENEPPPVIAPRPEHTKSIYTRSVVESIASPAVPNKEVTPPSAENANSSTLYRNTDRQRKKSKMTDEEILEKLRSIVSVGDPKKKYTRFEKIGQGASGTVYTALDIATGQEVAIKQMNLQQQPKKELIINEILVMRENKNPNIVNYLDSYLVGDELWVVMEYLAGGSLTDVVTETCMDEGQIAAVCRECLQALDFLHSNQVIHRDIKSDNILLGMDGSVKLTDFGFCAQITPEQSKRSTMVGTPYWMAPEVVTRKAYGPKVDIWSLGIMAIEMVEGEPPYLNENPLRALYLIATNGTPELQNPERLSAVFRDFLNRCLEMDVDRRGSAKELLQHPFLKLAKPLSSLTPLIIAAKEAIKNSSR

[10] = molecular target: T10, PAK4(h) (Homo sapiens, UniProt O96013); experiment: Kinase panel
T10 construct: purchased Millipore KinaseProfiler
T10 sequence (O96013 whole entry): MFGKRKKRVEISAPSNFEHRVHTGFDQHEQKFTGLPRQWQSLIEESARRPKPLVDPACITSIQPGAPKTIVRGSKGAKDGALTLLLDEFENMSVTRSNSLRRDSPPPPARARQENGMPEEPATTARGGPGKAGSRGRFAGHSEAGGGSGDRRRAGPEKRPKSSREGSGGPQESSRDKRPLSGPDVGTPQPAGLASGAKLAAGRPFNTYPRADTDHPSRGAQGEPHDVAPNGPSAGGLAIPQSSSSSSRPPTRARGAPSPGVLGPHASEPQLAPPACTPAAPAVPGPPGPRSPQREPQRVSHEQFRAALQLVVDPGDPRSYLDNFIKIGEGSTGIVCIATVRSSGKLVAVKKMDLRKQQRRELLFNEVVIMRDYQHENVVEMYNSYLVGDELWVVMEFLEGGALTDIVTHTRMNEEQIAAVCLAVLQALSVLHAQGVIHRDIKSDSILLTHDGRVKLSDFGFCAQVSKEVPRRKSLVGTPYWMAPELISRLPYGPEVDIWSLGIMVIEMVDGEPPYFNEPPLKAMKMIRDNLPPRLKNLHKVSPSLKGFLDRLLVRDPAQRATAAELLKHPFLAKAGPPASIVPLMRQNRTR

[11] = molecular target: T11, PKCγ(h) (Homo sapiens, UniProt P05129); experiment: Kinase panel
T11 construct: purchased Millipore KinaseProfiler

[12] = molecular target: T12, PrKX(h) (Homo sapiens, UniProt P51817); experiment: Kinase panel
T12 construct: purchased Millipore KinaseProfiler
T12 sequence (P51817 1-358): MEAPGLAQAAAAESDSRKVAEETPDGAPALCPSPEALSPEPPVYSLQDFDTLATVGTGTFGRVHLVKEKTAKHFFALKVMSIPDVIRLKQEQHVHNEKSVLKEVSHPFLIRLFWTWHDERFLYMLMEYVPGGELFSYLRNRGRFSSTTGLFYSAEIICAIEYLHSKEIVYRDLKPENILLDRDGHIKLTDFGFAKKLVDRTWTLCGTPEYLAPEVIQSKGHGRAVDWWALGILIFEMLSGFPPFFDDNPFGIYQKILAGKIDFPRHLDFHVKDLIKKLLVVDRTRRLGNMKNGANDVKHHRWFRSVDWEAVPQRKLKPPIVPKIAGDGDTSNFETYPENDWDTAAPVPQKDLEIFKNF

[13] = molecular target: T13, Snk(h) (Homo sapiens, UniProt Q9NYY3); experiment: Kinase panel
T13 construct: purchased Millipore KinaseProfiler
T13 sequence (Q9NYY3 whole entry): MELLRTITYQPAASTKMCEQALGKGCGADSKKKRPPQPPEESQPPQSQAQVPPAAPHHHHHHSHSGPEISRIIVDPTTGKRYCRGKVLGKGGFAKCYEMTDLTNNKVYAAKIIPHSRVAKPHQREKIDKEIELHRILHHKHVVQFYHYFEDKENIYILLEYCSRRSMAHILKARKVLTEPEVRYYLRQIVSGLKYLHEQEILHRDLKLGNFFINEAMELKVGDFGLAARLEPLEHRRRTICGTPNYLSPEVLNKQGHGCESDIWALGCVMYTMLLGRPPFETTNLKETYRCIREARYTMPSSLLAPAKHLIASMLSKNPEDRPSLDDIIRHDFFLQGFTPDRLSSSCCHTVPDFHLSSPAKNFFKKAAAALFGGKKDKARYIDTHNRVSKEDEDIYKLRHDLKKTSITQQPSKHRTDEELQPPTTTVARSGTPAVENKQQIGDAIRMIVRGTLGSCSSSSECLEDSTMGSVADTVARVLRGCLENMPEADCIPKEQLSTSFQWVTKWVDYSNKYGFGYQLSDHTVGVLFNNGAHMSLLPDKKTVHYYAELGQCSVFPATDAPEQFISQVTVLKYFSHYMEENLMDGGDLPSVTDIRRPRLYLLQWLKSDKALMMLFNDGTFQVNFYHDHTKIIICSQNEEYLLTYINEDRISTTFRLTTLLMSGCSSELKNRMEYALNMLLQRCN

[14] = molecular target: T14, Tie2(Y897S)(h) (Homo sapiens, UniProt Q02763, Y897S); experiment: Kinase panel
T14 construct: purchased Millipore KinaseProfiler
T14 sequence (Q02763 23-1124 Y897S): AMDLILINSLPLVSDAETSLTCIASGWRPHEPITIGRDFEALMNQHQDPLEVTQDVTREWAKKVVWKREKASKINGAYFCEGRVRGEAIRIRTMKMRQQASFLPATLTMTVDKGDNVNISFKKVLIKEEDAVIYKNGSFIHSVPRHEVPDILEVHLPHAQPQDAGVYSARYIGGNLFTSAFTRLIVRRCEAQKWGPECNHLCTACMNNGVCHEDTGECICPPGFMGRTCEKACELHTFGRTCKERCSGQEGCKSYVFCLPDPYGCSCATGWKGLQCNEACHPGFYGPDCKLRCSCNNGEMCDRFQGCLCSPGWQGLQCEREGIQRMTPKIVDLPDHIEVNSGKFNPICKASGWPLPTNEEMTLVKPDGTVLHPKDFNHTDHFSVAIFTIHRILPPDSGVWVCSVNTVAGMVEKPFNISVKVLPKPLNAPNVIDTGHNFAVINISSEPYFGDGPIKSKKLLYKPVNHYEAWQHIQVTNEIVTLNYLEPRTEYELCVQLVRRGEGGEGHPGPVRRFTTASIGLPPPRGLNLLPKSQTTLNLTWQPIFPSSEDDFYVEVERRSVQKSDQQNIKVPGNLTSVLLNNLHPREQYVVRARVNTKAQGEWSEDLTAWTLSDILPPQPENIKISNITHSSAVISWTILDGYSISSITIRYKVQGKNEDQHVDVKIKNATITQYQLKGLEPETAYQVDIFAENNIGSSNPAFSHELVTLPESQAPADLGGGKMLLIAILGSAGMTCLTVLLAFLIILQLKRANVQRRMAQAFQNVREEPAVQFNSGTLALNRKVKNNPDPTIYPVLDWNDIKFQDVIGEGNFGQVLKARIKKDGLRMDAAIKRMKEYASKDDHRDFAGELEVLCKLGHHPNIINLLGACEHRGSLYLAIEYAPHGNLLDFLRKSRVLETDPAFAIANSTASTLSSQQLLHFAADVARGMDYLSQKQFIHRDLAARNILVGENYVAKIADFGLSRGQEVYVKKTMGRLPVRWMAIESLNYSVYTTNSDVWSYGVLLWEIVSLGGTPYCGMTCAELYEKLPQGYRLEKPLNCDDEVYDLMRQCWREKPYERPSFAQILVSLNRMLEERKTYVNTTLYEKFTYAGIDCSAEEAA

[15] = molecular target: T15, TrkA(h) (Homo sapiens, UniProt P04629); experiment: Kinase panel
T15 construct: purchased Millipore KinaseProfiler

[16] = molecular target: T16, WNK3(h) (Homo sapiens, UniProt Q9BYP7); experiment: Kinase panel
T16 construct: purchased Millipore KinaseProfiler

[17] = molecular target: P70S6K (Homo sapiens, UniProt P23443); experiment: Kinase IC50 assay
[18] = molecular target: PKA (Homo sapiens, UniProt P17612); experiment: Kinase IC50 assay
[19] = molecular target: PKCζ (Homo sapiens, UniProt Q05513); experiment: Kinase IC50 assay

## Cn1ncc(Cl)c1-c1cc(C(=O)N[C@H](CN)Cc2ccc(F)c(F)c2)oc1Cl [GSK2141795]
[1]; 0.5 µM, read-out: % Inhibition
  inhibition at 0.5 µM: -7%
[1]; 10 µM, read-out: % Inhibition
  inhibition at 10 µM: -3%
[2]; 0.5 µM, read-out: % Inhibition
  inhibition at 0.5 µM: 12%
[2]; 10 µM, read-out: % Inhibition
  inhibition at 10 µM: 13%
[3]; 0.5 µM, read-out: % Inhibition
  inhibition at 0.5 µM: -2%
[3]; 10 µM, read-out: % Inhibition
  inhibition at 10 µM: -2%
[4]; 0.5 µM, read-out: % Inhibition
  inhibition at 0.5 µM: -10%
[4]; 10 µM, read-out: % Inhibition
  inhibition at 10 µM: -8%
[5]; 0.5 µM, read-out: % Inhibition
  inhibition at 0.5 µM: -15%
[5]; 10 µM, read-out: % Inhibition
  inhibition at 10 µM: -6%
[6]; 0.5 µM, read-out: % Inhibition
  inhibition at 0.5 µM: -4%
[6]; 10 µM, read-out: % Inhibition
  inhibition at 10 µM: 21%
[7]; 0.5 µM, read-out: % Inhibition
  inhibition at 0.5 µM: -18%
[7]; 10 µM, read-out: % Inhibition
  inhibition at 10 µM: 18%
[8]; 0.5 µM, read-out: % Inhibition
  inhibition at 0.5 µM: -9%
[8]; 10 µM, read-out: % Inhibition
  inhibition at 10 µM: -32%
[9]; 0.5 µM, read-out: % Inhibition
  inhibition at 0.5 µM: 6%
[9]; 10 µM, read-out: % Inhibition
  inhibition at 10 µM: 28%
[10]; 0.5 µM, read-out: % Inhibition
  inhibition at 0.5 µM: 4%
[10]; 10 µM, read-out: % Inhibition
  inhibition at 10 µM: 39%
[11]; 0.5 µM, read-out: % Inhibition
  inhibition at 0.5 µM: 63%
[11]; 10 µM, read-out: % Inhibition
  inhibition at 10 µM: 95%
[12]; 0.5 µM, read-out: % Inhibition
  inhibition at 0.5 µM: 91%
[12]; 10 µM, read-out: % Inhibition
  inhibition at 10 µM: 98%
[13]; 0.5 µM, read-out: % Inhibition
  inhibition at 0.5 µM: -12%
[13]; 10 µM, read-out: % Inhibition
  inhibition at 10 µM: 15%
[14]; 0.5 µM, read-out: % Inhibition
  inhibition at 0.5 µM: -4%
[14]; 10 µM, read-out: % Inhibition
  inhibition at 10 µM: 2%
[15]; 0.5 µM, read-out: % Inhibition
  inhibition at 0.5 µM: -13%
[15]; 10 µM, read-out: % Inhibition
  inhibition at 10 µM: 63%
[16]; 0.5 µM, read-out: % Inhibition
  inhibition at 0.5 µM: -2%
[16]; 10 µM, read-out: % Inhibition
  inhibition at 10 µM: 1%
[17]
  IC50: 50 nM
[18]
  IC50: 2 nM
[19]
  IC50: > 1000 nM

## Cn1ncc(Cl)c1-c1cc(C(=O)N[C@H](CN)Cc2cccc(F)c2)sc1Cl [GSK2110183]
[1]
  inhibition at 0.5 µM: 0%
  inhibition at 10 µM: 24%
[2]
  inhibition at 0.5 µM: 8%
  inhibition at 10 µM: 4%
[3]
  inhibition at 0.5 µM: -1%
  inhibition at 10 µM: 6%
[4]
  inhibition at 0.5 µM: -1%
  inhibition at 10 µM: -12%
[5]
  inhibition at 0.5 µM: -8%
  inhibition at 10 µM: -5%
[6]
  inhibition at 0.5 µM: -35%
  inhibition at 10 µM: -28%
[7]
  inhibition at 0.5 µM: -2%
  inhibition at 10 µM: 40%
[8]
  inhibition at 0.5 µM: -8%
  inhibition at 10 µM: -12%
[9]
  inhibition at 0.5 µM: -2%
  inhibition at 10 µM: 62%
[10]
  inhibition at 0.5 µM: -13%
  inhibition at 10 µM: 17%
[11]
  inhibition at 0.5 µM: 39%
  inhibition at 10 µM: 90%
[12]
  inhibition at 0.5 µM: 70%
  inhibition at 10 µM: 96%
[13]
  inhibition at 0.5 µM: -8%
  inhibition at 10 µM: 18%
[14]
  inhibition at 0.5 µM: -5%
  inhibition at 10 µM: -4%
[15]
  inhibition at 0.5 µM: 9%
  inhibition at 10 µM: 69%
[16]
  inhibition at 0.5 µM: 0%
  inhibition at 10 µM: 16%
[17]
  IC50: 251 nM
[18]
  IC50: 1.3 nM
[19]
  IC50: > 1000 nM
